Measured values from patent US5399729A, “Esterified alkoxylated polyol fat substitutes having high primary ester content” (Arco Chemical Technology, L.P., priority 1993, dated 1995).

System: porcine pancreatic lipase
Assay: Porcine pancreatic lipase-catalyzed hydrolysis (lipase titrimetric assay, automatic pH stat method)
Assay type: in vitro ADME
Conditions: pH 8.5
Experimental: To measure the relative rate of enzyme-catalyzed hydrolysis for the esterified propoxylated glycerin, the composition was challenged by porcine pancreatic lipase. Test emulsions were prepared using the composition according to the procedures described by Naher, "Lipase Titrimetric Assay", in Methods in Enzymatic Analysis, Vol. 2, 2nd Eng. ed., p. 814 (1974), except that the composition was not neutralized prior to generation of the emulsion. A 20 mL sample of the composition was utilized. The emulsions were generated in a Waring blender equipped with a stainless steel jacketed container (300 mL capacity). The jacketed blender container was filled with an ice-in-water suspension to cool the emulsion during preparation. Hydrolysis of the composition at pH 8.50 and two enzyme levels (200 and 4000 units/assay) was monitored via the automatic pH stat method described by Naber using a Radiometic Copenhagen RTS822 recording titration system (equipped with a PHM84 pH meter and a REA 270 derivatization unit) and a 0.1N sodium hydroxide solution. The enzymatic reaction was maintained at 37° C. under a nitrogen atmosphere.
The results obtained for the esterified alkoxylated polyol obtained as described hereinabove and for olive oil and soybean oil controls are shown in Table I. The table also provides comparative data for a conventional esterified alkoxylated polyol made by reacting 8 equivalents of propylene oxide with one equivalent of glycerin under basic conditions and esterifying with soybean fatty acids; this conventional fat substitute has a low (<5%) proportion of primary ester linkages. […] This finding was surprising in view of U.S. Pat. Nos. 5,059,443 and 5,077,073, which indicate that the rate of lipase-catalyzed hydrolysis is substantially independent of the structure of the ester linkages in an esterified alkoxylated polyol fat substitute.

Q: Which results are given for Soybean Oil?
A: Hydrolysis Rate (#μeq/min for an equivalent amount of enzyme): 3.62 μeq/min; Hydrolyzability (relative to olive oil): 0.738; Normalized Hydrolyzability (hydrolyzability compared on an equal molar basis, taking into account the concentration of ester linkages): 0.723
